# Test results from patent US10590422B2, “Anticancer therapeutic intervention” (PHYZAT BIOPHARMACEUTICALS, LDA., priority 2017, dated 2020).
# Tested on: ASCT2
# Experiment: ASCT2 activity: [^14C]-L-alanine uptake in fibrosarcoma HT-1080 cells after ASCT2 gene silencing
# Assay type: cell-based, human
# Conditions: at 48 h
# Protocol: Cells were plated in 24-well plates (Sarstedt, Germany) and grown until confluence was reached. On the day of the experiment, Cell culture medium was aspirated and cells were preincubated for 15 min in Hanks' medium (ChCl 140 mM, KCl 5 mM, MgSO4.7H2O 0.8 mM, K2HPO4 0.33 mM, KH2PO4 0.44 mM, MgCl2.6H2O 1 mM, CaCl2) 0.025 mM, Tris-HCl 9.75 mM, pH 7.4). Uptake was initiated by the addition of Hanks' medium with 0.25 μM [^14C]-L-alanine in the absence and in the presence of 3 mM unlabeled L-alanin. During preincubation and incubation cells were continuously shaken and maintained at 37° C. Uptake was terminated after 1 min by rapid removal of uptake solution by means of a vacuum pump connected to a Pasteur pipette, followed by a rapid wash with Hanks' medium. Subsequently, cells were solubilized in 0.1% vol/vol Triton X-100 (dissolved in 5 mM Tris-HCl, pH 7.4), and radioactivity was measured by liquid scintillation counting.
# Cells were plated in 24-well (Sarstedt, Germany) or 6-well plates (Sarstedt, Germany) or 96-well plates with black walls clear bottom (BD Biosciences, USA) and incubated 24 h under normal growth conditions. siRNAs against ASCT2 and transfection agent were diluted at desired concentrations and mixed according to transfection agent manufacturer's instructions. The mixture was incubated 20 min at RT for siRNA-complex formation, after which it was added to the cells and incubated at 37° C., 5% CO2. After the incubation period, serum and antibiotic was restored and cells were further incubated at normal conditions for the desired time points until evaluation of ASCT2 activity or ASCT2 expression (immunoblotting and RT-qPCR).
substance,measurement,setting,value
278/403/404 (sense UGCCACGGUCGCCUCUGAGAATT; antisense UUCUCAGAGGCGACCGUGGCATT; siRNA; sugars by position and backbone not given here; further chemistry not fully specified),Effect on [^14C]-L-alanine uptake compared with SEQ ID NO: 267/397/398,"HT-1080 cells, 5 nM, p<0.05",significantly greater
same,[^14C]-L-alanine (0.25 μM) uptake at initial rate of uptake (1 min),"fibrosarcoma HT-1080 cells, 5 nM siRNA, treatment 6 h, 0.4% Lipofectamine 2000, FIG. 8B",decreased
